# Legend:
# pulmonary artery rings [1] = assay: Ex vivo myography of pulmonary artery rings, acute SUL-150 pre-incubation, phenylephrine-induced vasoconstriction; set-up: species or system rat; details: vehicle pre-incubation; for EC50: Rattus norvegicus
# Method: The fourth-degree branching intralobar pulmonary arteries were carefully dissected under a Leica S4E stereomicroscope as described before. Arterial ring segments (2 mm length) were mounted in a Mulvany-type wire myograph system (model #610M, Danish Myo Technology, Aarhus, Denmark) using Ø40 µm steel wire. Rings were preserved in myography chambers filled with aerated Krebs buffer (pH 7.4) at 37 °C. After 20 min equilibration, rings were stretched to 1.8 kPa using the DMT Normalization Procedure and allowed to equilibrate for an additional 20 min. Analogue–digital signal conversion was performed using PowerLab 8/30, and a myogram was recorded in PowerLab Chart v 5.3 (AD Instruments, Oxford, UK). To assess the acute effects of SUL-150 on vasoconstriction, arterial rings were pre-constricted with 60 mM KCl and, following washout and stabilization, incubated with vehicle (0.1% DMSO) or SUL-150 (10^−4 M) for 20 min. Next, constriction responses to phenylephrine (phenylephrine, Sigma-Aldrich, St. Louis, MO, USA) were recorded in the dose range of 3 × 10^−9 to 3 × 10^−5 M. To assess the chronic effects of SUL-150 treatment, a similar protocol was followed, leaving out the preincubation with vehicle or SUL-150. Isometric responses were calculated as % of maximal KCl-induced constriction, and dose–response curves were recorded to determine the efficacy (Emax) and potency (EC50) of phenylephrine to induce vasoconstriction.
# pulmonary artery rings [2] = assay: Ex vivo myography of pulmonary artery rings after chronic SUL-150 administration, phenylephrine-induced vasoconstriction; assay type: in vivo, rat; details: for EC50: Rattus norvegicus, 840 h
# [3] = system: neonatal rat cardiomyocytes; assay: In vitro hypertrophy reporter assay in phenylephrine-treated cardiomyocytes; assay type: cell-based; details: vehicle pre-incubation, phenylephrine 24 h
# Method: Cultures of neonatal rat cardiomyocytes were prepared from 1–3-day-old Wistar rats and adenovirally transformed with hypertrophy reporter construct as described elsewhere. Cardiomyocytes were pre-incubated with SUL-150 (3 × 10^−5 M) or vehicle for 30 min and subsequently stimulated with phenylephrine in the dose range of 10^−8 to 10^−4 M for 24 h. Cells were lysed in passive lysis buffer (Promega, Madison, WI, USA), and […] intensity of the lysate was recorded in an EnVision 2102 plate reader (Perkin Elmer, Waltham, MA, USA).
# [4] = pulmonary artery rings of PAH rats
# [5] = pulmonary artery rings of sham rats
# [6] = rings of sham control rats (day 35, chronic study)
# [7] = rings of vehicle-treated PAH rats (day 35, chronic study)
structure (smiles),measurement,setting,value
CNC[C@H](O)c1cccc(O)c1 [phenylephrine],EC50,pulmonary artery rings [1]; [4],1080 nM
same,EC50,pulmonary artery rings [1]; [5],174 nM
same,Emax of phenylephrine-induced vasoconstriction,pulmonary artery rings [1]; [4],43.4 % of max
same,Emax of phenylephrine-induced vasoconstriction,pulmonary artery rings [1]; [5],34.7 % of max
same,EC50,pulmonary artery rings [2]; [6],89.8 nM
same,EC50,pulmonary artery rings [2]; [7],1240 nM
same,Emax of phenylephrine-induced vasoconstriction,pulmonary artery rings [2]; [6],33.0 ± 2.3 % of max
same,Emax of phenylephrine-induced vasoconstriction,pulmonary artery rings [2]; [7],71.9 ± 9.2 % of max
same,EC50,"[3]; Rattus norvegicus, Cardiomyocyte",1520 nM
same,Emax of phenylephrine in hypertrophy reporter,[3],3.93 RFU
